Source: US10392348B2, “2-oxo-3,4-dihydroquinoline compounds as plant growth regulators” (Syngenta Participations AG, priority 2015, dated 2019)
Read-outs that look alike come from different tables or passages of the source.

Assays:
[1] = tested on: soybean plants (variety S20-G7); assay: Reduced plant water use in soybean (foliar spray, repeated weighing of pots); format: in vivo; settings: Glycine max, foliar, Table B1, sprayed at 500 μM, vs negative control
How it was run: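 Daytime water use was tracked by weighing pots of 12-day-old soybean after foliar spray of compound formulated as EC plus EXTRAVON 1 g/20 L. Cumulative total (0-2.5 DAA) sums a.m. and p.m. readings; values baseline-adjusted by covariance analysis against formulation-only negative control.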

[2] = tested on: corn plants (variety NK OCTET); assay: Reduced plant water use in corn (foliar spray, repeated weighing of pots); format: in vivo; settings: Zea mays, corn plants sprayed at 500 μM, average of 6 pots
How it was run: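 Water use was summed over 0–2.5 days after application, from repeated day-time weighings of pots and corrected by ANCOVA for pre-application baseline. Plants, 12 days old, received foliar EC sprays diluted with water plus 0.4% rape seed methyl ester adjuvant.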

[3] = 0 h, 0 DAA a.m. (10:30-12:50), read-out: % WU 0 DAA AM
[4] = 24 h, 1 DAA a.m. (7:30-12:50), read-out: % WU 1DAA AM
[5] = 24 h, 1 DAA p.m. (14:00-19:50), read-out: % WU 1DAA PM
[6] = 48 h, 2 DAA a.m. (07:30-12:50), read-out: % WU 2 DAA AM
[7] = 48 h, 2 DAA p.m. (14:00-19:50), read-out: % WU 2 DAA PM
[8] = 60 h, cumulative total WU (0-2.5 DAA), read-out: % WU Total 0 to 2.5 DAA
[9] = 0 h, water use during day time vs negative control, 0 DAA a.m. (10:30-12:50), read-out: % WU 0 DAA AM
[10] = 0 h, water use during day time vs negative control, 0 DAA p.m. (14:00-19:50), read-out: % WU 0DAA PM
[11] = 24 h, water use during day time vs negative control, 1 DAA a.m. (07:30-12:50), read-out: % WU 1DAA AM
[12] = 24 h, water use during day time vs negative control, 1 DAA p.m. (14:00-19:50), read-out: % WU 1DAA PM
[13] = 48 h, water use during day time vs negative control, 2 DAA a.m. (07:30-12:50), read-out: % WU 2 DAA AM
[14] = 48 h, water use during day time vs negative control, 2 DAA p.m. (14:00-19:50), read-out: % WU 2 DAA PM
[15] = 60 h, cumulative total water use 0-2.5 DAA (sum of the time points) vs negative control, read-out: % WU Total 0 to 2.5 DAA

SMILES	change in vivo at 500 µM [1, 3] [%]	change in vivo at 500 µM [1, 4] [%]	change in vivo at 500 µM [1, 5] [%]	change in vivo at 500 µM [1, 6] [%]	change in vivo at 500 µM [1, 7] [%]	change in vivo at 500 µM [1, 8] [%]	change in vivo at 500 µM [2, 9] [%]	change in vivo at 500 µM [2, 10] [%]	change in vivo at 500 µM [2, 11] [%]	change in vivo at 500 µM [2, 12] [%]	change in vivo at 500 µM [2, 13] [%]	change in vivo at 500 µM [2, 14] [%]	change in vivo at 500 µM [2, 15] [%]	melting point [°C]
CCN1C(=O)CCc2cc(CNS(=O)(=O)c3ccc(Br)cc3)ccc21 [Compound 2.002, 4-bromo-N-[(1-ethyl-2-oxo-3,4-dihydroquinolin-6-yl)methyl]benzenesulfonamide]	-10.4	-6.5	-4	-5.6	-4.2	-5.8	-10.8	-3.6	-3.2	-3.9	-1.2	-1.7	-3.2	176 to 183
CCN1C(=O)CCc2cc(CNS(=O)(=O)c3ccc(F)cc3F)ccc21 [Compound 2.006, N-[(1-ethyl-2-oxo-3,4-dihydroquinolin-6-yl)methyl]-2,4-difluoro-benzenesulfonamide]	-23.4	-13.8	-13	-10.4	-7.3	-13.2	-12.5	-6.7	-6.5	-5.5	-3	-3.2	-5.4	167 to 168
CCN1C(=O)CCc2cc(CNS(=O)(=O)c3ccc(C)s3)ccc21 [Compound 2.061, N-[(1-ethyl-2-oxo-3,4-dihydroquinolin-6-yl)methyl]-5-methyl-thiophene-2-sulfonamide]	-50.4	-7.9	-2.2	-0.5	-1.2	-13.7	-18.8	-10.8	-7.5	-2.8	-1.6	-0.8	-6.2	149 to 152
CCN1C(=O)CCc2cc(CNS(=O)(=O)c3ccsc3)ccc21 [Compound 2.068, N-[(1-ethyl-2-oxo-3,4-dihydroquinolin-6-yl)methyl]thiophene-3-sulfonamide]	-27	-18.1	-14.7	-11.6	-7.5	-15.3	-16.6	-15.1	-12.9	-11.4	-9.2	-9.1	-11.8	128 to 131
CCCN1C(=O)CCc2cc(CNS(=O)(=O)c3ccc(Br)cc3)ccc21 [Compound 3.002, 4-bromo-N-[(2-oxo-1-propyl-3,4-dihydroquinolin-6-yl)methyl]benzenesulfonamide]	-22.5	-13.7	-9.4	-6.7	-4.7	-11.4	-16.3	-12.2	-13.4	-10.5	-9.5	-7	-10.9	143 to 145
CCCN1C(=O)CCc2cc(CNS(=O)(=O)c3c(F)cccc3F)ccc21 [Compound 3.005, 2,6-difluoro-N-[(2-oxo-1-propyl-3,4-dihydroquinolin-6-yl)methyl]benzenesulfonamide]	-37.5	-24.9	-21.9	-12.9	-12	-21.9	-16.2	-10.5	-9.2	-7.9	-5.4	-5.3	-8.2	182 to 183
CCCN1C(=O)CCc2cc(CNS(=O)(=O)c3ccc(F)cc3F)ccc21 [Compound 3.006, 2,4-difluoro-N-[(2-oxo-1-propyl-3,4-dihydroquinolin-6-yl)methyl]benzenesulfonamide]	-36.5	-28.3	-24.2	-17.8	-14.9	-24.5	-18	-14.1	-12.6	-10.2	-6.6	-5.7	-10.3	141 to 144
CCCN1C(=O)CCc2cc(CNS(=O)(=O)c3ccccc3F)ccc21 [Compound 3.007, 2-fluoro-N-[(2-oxo-1-propyl-3,4-dihydroquinolin-6-yl)methyl]benzenesulfonamide]	-16.1	-12.7	-9.7	-7.7	-7.6	-10.8	-16	-12	-11.4	-9.5	-6.6	-5.9	-9.4	155 to 156
CCCN1C(=O)CCc2cc(CNS(=O)(=O)c3ccc(F)cc3)ccc21 [Compound 3.009, 4-fluoro-N-[(2-oxo-1-propyl-3,4-dihydroquinolin-6-yl)methyl]benzenesulfonamide]	-17.5	-9.4	-6.4	-5.5	-4.2	-8.5	-16.9	-13.9	-13.2	-11.9	-9	-8.2	-11.6	143 to 144
CCCN1C(=O)CCc2cc(CNS(=O)(=O)c3ccc(OC)cc3)ccc21 [Compound 3.010, 4-methoxy-N-[(2-oxo-1-propyl-3,4-dihydroquinolin-6-yl)methyl]benzenesulfonamide]	-28	-3	-1	-2.1	-1.7	-5.7	-14.4	-8.3	-6.3	-5.4	-2.5	-2.2	-5.5	143 to 144
CCCN1C(=O)CCc2cc(CNS(=O)(=O)/C=C/c3cccc(Cl)c3)ccc21 [Compound 3.069, (E)-2-(3-chlorophenyl)-N-[(2-oxo-1-propyl-3,4-dihydroquinolin-6-yl)methyl]ethenesulfonamide]							-8.1	-4.1	-6.1	-5.5	-4.8	-3.8	-5	129 to 133
